{
  "source": "patent US20100183745A1",
  "about": "“Electrochemical Device for Biocide Treatment in Agricultural Applications” (Industrie De Nora S.P.A., priority 2007, published 2010)",
  "test_system": "Erwinia amylovora",
  "assay": "SEM analysis of bacterial colonies on treated pear leaves",
  "type": "in vivo, pear trees of white William variety",
  "settings": "leaves apparently not affected by the disease; copious bacterial colonies prior to treatment; once a day during 10 days",
  "text": "The feed vessel was loaded with a solution at neutral pH containing 1 g/l of NaCl and 2.5 g/l of KCl, and the service vessel was loaded with a tap-water stream whose flow-rate was controlled by a downstream UV probe, calibrated so as to detect the concentration of outlet hypochlorous acid by adsorption at 292 nm adjusting the same at a value comprised between 0.10 and 0.15 g/l at sprinkling stage. The outflow of electrolysis cell to the service vessel was adjusted at a flow-rate of 20 l/h.\nThe device regulated in this way was used for sprinkling the leaves of 50 pear trees of white William variety affected with fire blight, a disease induced by Erwinia amylovora bacterium causing stems, leaves and flowers of the plant to turn brown in localised groups. […] Each treatment was repeated once a day, during 10 subsequent days.",
  "data": [
    {"smiles": "O.O.O.O.O.O=S(=O)([O-])[O-].[Cu+2]", "note": "[cupric sulphate]", "values": [
      {"measurement": "bacterial colonies on leaves by SEM analysis after the treatment", "value": "substantial reduction of the phenomenon, still showed the signs of traces of bacterial colonies"}
    ]}
  ]
}
